# pIC50, pKi: −log10 of the molar value. Where “and” joins values, the source holds several entries; their conditions need not be identical. Identical values can stand only once. Like-named read-outs stand apart in the source and are kept apart here. Bridge positions count the residues as written; N and C are the ends. Ends that are not written are not given here. Peptide text beside a SMILES is read from it.
# Legend:
# IDE = molecular target: T1, IDE (Homo sapiens, UniProt P14735); experiment: Vulnerability of peptides to degradation by IDE: 0 vs 4 h pre-incubation, then FRET1 assay; type: biochemical; conditions: for remaining activity at 0.12207 µM / remaining activity at 0.488281 µM / remaining activity at 1.95312 µM / remaining activity at 7.8125 µM / remaining activity at 31.25 µM / remaining activity at 125 µM / remaining activity at 500 µM: 4 h, relative to DMSO-only controls, read-out: Percent Activity (normalized initial velocity of FRET1 hydrolysis); for remaining activity at 0.12207 µM: Cmpd 0.12207 uM; for remaining activity at 0.488281 µM: Cmpd 0.488281 uM; for remaining activity at 1.95312 µM: Cmpd 1.95312 uM; for remaining activity at 7.8125 µM: Cmpd 7.8125 uM; for remaining activity at 31.25 µM: Cmpd 31.25 uM; for remaining activity at 125 µM: Cmpd 125 uM; for remaining activity at 500 µM: Cmpd 500 uM; for pKi: Cheng-Prusoff from IC50, FRET1 KM 10 uM, substrate 5 uM; for pIC50: FRET1 assay
# T1 construct: made in house; host or cells: bacteria
# T1 sequence (P14735 1-1019): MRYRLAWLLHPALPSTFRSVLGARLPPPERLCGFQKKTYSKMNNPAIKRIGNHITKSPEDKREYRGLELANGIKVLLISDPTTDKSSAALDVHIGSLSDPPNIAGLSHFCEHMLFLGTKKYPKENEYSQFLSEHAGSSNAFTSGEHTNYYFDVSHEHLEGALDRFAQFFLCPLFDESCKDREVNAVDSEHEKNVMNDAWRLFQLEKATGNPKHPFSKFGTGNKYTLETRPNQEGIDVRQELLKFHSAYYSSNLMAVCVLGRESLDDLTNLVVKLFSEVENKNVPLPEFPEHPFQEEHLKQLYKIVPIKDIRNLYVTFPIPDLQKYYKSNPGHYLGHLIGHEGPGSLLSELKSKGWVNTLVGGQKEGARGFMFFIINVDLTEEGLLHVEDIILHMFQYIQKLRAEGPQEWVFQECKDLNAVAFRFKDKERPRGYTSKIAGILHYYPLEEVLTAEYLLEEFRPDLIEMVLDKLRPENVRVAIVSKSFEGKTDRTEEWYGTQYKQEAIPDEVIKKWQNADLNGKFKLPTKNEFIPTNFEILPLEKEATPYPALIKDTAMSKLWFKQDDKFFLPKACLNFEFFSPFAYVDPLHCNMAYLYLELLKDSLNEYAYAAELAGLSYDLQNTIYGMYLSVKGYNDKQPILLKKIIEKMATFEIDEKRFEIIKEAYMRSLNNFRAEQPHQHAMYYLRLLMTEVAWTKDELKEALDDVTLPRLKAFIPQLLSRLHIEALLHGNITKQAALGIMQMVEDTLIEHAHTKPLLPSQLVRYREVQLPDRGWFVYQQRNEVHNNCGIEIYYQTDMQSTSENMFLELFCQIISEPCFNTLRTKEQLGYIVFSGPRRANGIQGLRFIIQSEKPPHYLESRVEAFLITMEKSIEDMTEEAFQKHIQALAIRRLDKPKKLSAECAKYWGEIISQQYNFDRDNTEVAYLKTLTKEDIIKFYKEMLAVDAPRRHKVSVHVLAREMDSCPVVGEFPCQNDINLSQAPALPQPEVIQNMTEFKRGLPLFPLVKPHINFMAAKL
# Protocol: IDE activity was quantified by monitoring the degradation of Mca-[…](Dnp) (FRET1, 5 μM), fluoresceinated and biotinylated amyloid ß-protein (FAßB; 500 nM) or recombinant human insulin (50 nM) in PBS supplemented with 0.05% BSA. […] In vitro activity assays incorporated recombinant human IDE (1 nM) purified from bacteria. For quantitation of insulin degradation in primary murine skin fibroblasts, cells (1 x 10^5/well) were plated in 96-well plates and maintained in DMEM supplemented with 10% fetal bovine serum (FBS), 2mM glutamine, penicillin and streptomycin. After addition of insulin (10 nM or 100 nM), samples of conditioned medium were removed daily and quickly frozen, then insulin levels were quantified in parallel by ELISA according to manufacturer’s recommendations (Crystal Chem, Downers Grove, IL, USA). Assessment of the activity of P12-3A against a variety of matrix-metalloproteases was conducted using the Matrix Metalloproteinase (MMP) Inhibitor Profiling Kit, Fluorometric RED (Enzo Life Sciences, Inc., Farmingdale, NY, USA) according to manufacturer’s recommendations using the broad-spectrum MMP inhibitor, NNGH, as a positive control.
# [1] = Solubility in assay medium and cell culture medium; type: physicochemical; conditions: cosmetic-grade P12-3A, read-out: soluble up to
# [2] = test system: multiple peptidases of different protease classes; experiment: Activity on additional proteases, FAßB degradation assay; type: biochemical; set-up: concentration or dose not given beside the values; conditions: for % activity relative to DMSO-only and no-enzyme controls, Mean: N 8; for % activity relative to DMSO-only and no-enzyme controls, single runs: each run mean of quadruplicates
# Protocol: (§1) IDE activity was quantified by monitoring the degradation of Mca-[…](Dnp) (FRET1, 5 μM), fluoresceinated and biotinylated amyloid ß-protein (FAßB; 500 nM) or recombinant human insulin (50 nM) in PBS supplemented with 0.05% BSA. FRET1 degradation was measured by changes in fluorescence (λex = 340 nm, λem = 420 nm); FAßB degradation was monitored by fluorescence polarization (λex = 488 nm, λem = 525 nm), as described; and insulin degradation was quantified by ELISA. In vitro activity assays incorporated recombinant human IDE (1 nM) purified from bacteria. For quantitation of insulin degradation in primary murine skin fibroblasts, cells (1 x 10^5/well) were plated in 96-well plates and maintained in DMEM supplemented with 10% fetal bovine serum (FBS), 2mM glutamine, penicillin and streptomycin. After addition of insulin (10 nM or 100 nM), samples of conditioned medium were removed daily and quickly frozen, then insulin levels were quantified in parallel by ELISA according to manufacturer’s recommendations (Crystal Chem, Downers Grove, IL, USA). Assessment of the activity of P12-3A against a variety of matrix-metalloproteases was conducted using the Matrix Metalloproteinase (MMP) Inhibitor Profiling Kit, Fluorometric RED (Enzo Life Sciences, Inc., Farmingdale, NY, USA) according to manufacturer’s recommendations using the broad-spectrum MMP inhibitor, NNGH, as a positive control.
# Supplementary file pone.0193101.s004.tif: S4 Fig Selectivity of P12-3A for IDE vis-à-vis other proteases. Activity of P12-3A (100 μM) against (A) multiple matrix-metalloproteases (MMPs) and (B) multiple peptidases of different protease classes. […] Data are mean ± SD, n = 8–16 per group. P<0.05 by 2-tailed Student’s t-test. […] See Materials and Methods for details. NEP, neprilysin; mCatD, murine cathepsin D; hCatD, human cathepsin D. (TIF) Click here for additional data file.
# 15 different proteases = experiment: Selectivity against 15 different proteases (S4 Fig); type: biochemical; conditions: P12-3A 100 μM
# Protocol: Taken together with the potency of all peptides against insulin (Table 1), we concluded that P12-3A represented the best inhibitor for further studies, and a highly purified, deliberately cyclized version (Fig 3A) was synthesized. […] Based on its potency, stability and selectivity for IDE, P12-3A was selected for use in downstream assays.
# as §1, with “Assessment of the activity of P12-3A against a variety of matrix-metalloproteases was conducted using the Matrix Metalloproteinase (MMP) Inhibitor Profiling Kit, Fluorometric RED (Enzo Life Sciences, Inc., Farmingdale, NY, USA) according to manufacturer’s recommendations using the broad-spectrum MMP inhibitor, NNGH, as a positive control.” left out
# [3] = 4-hr incubation, individual runs
# [4] = 0-hr incubation (immediately after combining enzyme and peptide), individual runs, read-out: IC50s
# [5] = 4-hr incubation, individual replicates, read-out: IC50s
# [6] = 4-hr incubation, mean of 2 replicates, read-out: IC50s, Mean
Compound,remaining activity at 0.12207 µM (IDE; [3]) [%],remaining activity at 0.488281 µM (IDE; [3]) [%],remaining activity at 1.95312 µM (IDE; [3]) [%],remaining activity at 7.8125 µM (IDE; [3]) [%],remaining activity at 31.25 µM (IDE; [3]) [%],remaining activity at 125 µM (IDE; [3]) [%],remaining activity at 500 µM (IDE; [3]) [%],solubility ([1]; assay medium (PBS/0.05%BSA)) [µM],solubility ([1]; cell culture medium) [µM],"% activity relative to DMSO-only and no-enzyme controls, Mean ([2]; Plasmin) [%]","% activity relative to DMSO-only and no-enzyme controls, single runs ([2]; Plasmin)","% activity relative to DMSO-only and no-enzyme controls, Mean ([2]; Trypsin) [%]","% activity relative to DMSO-only and no-enzyme controls, single runs ([2]; Trypsin)",inhibition against 15 different proteases (15 different proteases),pKi (IDE; 4-hr incubation),pIC50 (IDE; [4]),"pIC50 (IDE; 0-hr incubation, mean of runs, read-out: IC50s, Mean)",pIC50 (IDE; [5]),pIC50 (IDE; [6])
CC(C)C[C@H](NC(=O)[C@H](CO)NC(=O)[C@@H](N)CCC(N)=O)C(=O)N1CCC[C@H]1C(=O)N[C@@H](Cc1c[nH]c2ccccc12)C(=O)N[C@H]1CSSC[C@@H](C(=O)N[C@H](C(=O)N[C@H](C(N)=O)[C@@H](C)O)C(C)C)NC(=O)[C@H](Cc2c[nH]cn2)NC(=O)[C@@H]2CCCN2C(=O)[C@H](Cc2ccc(O)cc2)NC1=O [P12-3A] (H-QSLPWCYPHCVT-NH2; disulfide 6-10 (inferred)),101,96.2,95.5,93.1,87.4,7.45,0.698,~500,~100,102.2,81.4012% and 90.4633% and 101.45% and 148.471% and 93.7572% and 91.0067% and 95.3568% and 115.381%,97.0,89.0897% and 97.7425% and 98.0394% and 101.611% and 90.6127% and 100.837% and 98.0681% and 99.896%,essentially no inhibition,–,–,–,–,–
CC(C)C[C@H](NC(=O)[C@H](CO)NC(=O)[C@@H](N)CCC(N)=O)C(=O)N1CCC[C@H]1C(=O)N[C@@H](Cc1c[nH]c2ccccc12)C(=O)N[C@H]1CSSC[C@@H](C(=O)N[C@H](C(=O)N[C@H](C(=O)O)[C@@H](C)O)C(C)C)NC(=O)[C@H](Cc2c[nH]cn2)NC(=O)[C@@H]2CCCN2C(=O)[C@H](Cc2ccc(O)cc2)NC1=O [P12-3] (H-QSLPWCYPHCVT-OH; disulfide 6-10 (inferred)),106,99.5,95.9,104,70.9,8.98,1.55,–,–,–,–,–,–,–,–,–,–,–,–
QSLPWCYP-NH2 [P12-3B],101,96.9,101,97,80.9,60.2,11.2,–,–,–,–,–,–,–,4.51,3.92,4.23,4.35 and 4.33,4.34
VHWDFRQWWQPS [P12-1],97.5,104,99,73.2,42.7,10,0.247,–,–,–,–,–,–,–,3.98,–,–,3.81 and 3.80,3.80
VHWDFRQWWQPS-NH2 [P12-1A],79.1,75,59.1,50.1,33.7,12.7,21.4,–,–,–,–,–,–,–,4.21,5.07,–,4.02 and 4.04,4.03
WSPISGKFFQRF [P12-4],89.9,96.1,86.6,80.4,84.9,75.6,30.5,–,–,–,–,–,–,–,3.59,–,–,3.40 and 3.42,3.41

# Reference: publication PMC5814047, “Peptidic inhibitors of insulin-degrading enzyme with potential for dermatological applications discovered via phage display” (PLoS ONE, 2018)
